Measurements published in the supplement of paper PMC10307832.

Assays:
Assay in all cases: relative viability (nuclei count vs DMSO), 5 days (fraction); higher = more cells survive
[1] = compound: C(C(=O)C(=O)O)Br [Bromopyruvate]
In short: (§1)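 Following overnight incubation at 37 °C, lung cancer cell lines in 1536-well plates were pinned with five library-drug doses (not always all listed) in √10 steps on vehicle-anchored plates. The cells then spent 5 days without medium change before a combined fix, permeabilisation and Hoechst stain, 4× imaging and MetaXpress nuclear counts. Viability is the treated-to-vehicle ratio of nuclei, taken as the median across plates. Only plates with control CV below 25% and at least one doubling passed.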

[2] = compound: CC(O)(CS(=O)(=O)c1ccc(F)cc1)C(=O)Nc1ccc(C#N)c(C(F)(F)F)c1 [Bicalutamide]
In short: as §1

[3] = compound: C(C(=O)C(=O)O)Br [Bromopyruvate] + Nc1ncn([C@H]2C[C@H](O)[C@@H](CO)O2)c(=O)n1 [Decitabine] (partner 2 µM)
In short: (§2)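 One day after seeding in 1536-well plates, lung cancer cell lines were dosed by pin tool. Dosing was either single-drug or a fixed anchor-drug dose plus five library-drug doses (not always all listed) in √10 steps. After 5 days, nuclei were stained in one fix-and-stain step and counted on 4× images, and relative viability is the nuclei count of treated wells over that of vehicle wells, given as the median of duplicate plates.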

[4] = compound: CC(O)(CS(=O)(=O)c1ccc(F)cc1)C(=O)Nc1ccc(C#N)c(C(F)(F)F)c1 [Bicalutamide] + C[C@]1(O)C[C@@H](c2nc(-c3ccc4ccc(-c5ccccc5)nc4c3)c3c(N)nccn32)C1 [Linsitinib] (partner 1 µM)
In short: as §2

Cell Line: UMC-11
- relative viability ([1]; 1 µM): 1.03
- relative viability ([1]; 3.162 µM): 0.989
- relative viability ([1]; 10 µM): 0.908
- relative viability ([1]; 31.62 µM): 0.958
- relative viability ([1]; 100 µM): 1
- relative viability ([2]; 0.08 µM): 0.958
- relative viability ([2]; 0.253 µM): 0.909
- relative viability ([2]; 0.8 µM): 1.17
- relative viability ([2]; 2.53 µM): 0.938
- relative viability ([3]; first compound 1 µM): 0.596
- relative viability ([3]; first compound 3.162 µM): 0.574
- relative viability ([3]; first compound 10 µM): 0.815
- relative viability ([3]; first compound 31.62 µM): 0.617
- relative viability ([3]; first compound 100 µM): 0.708
- relative viability ([4]; first compound 0.08 µM): 1.1
- relative viability ([4]; first compound 0.253 µM): 0.662
- relative viability ([4]; first compound 0.8 µM): 1.08
- relative viability ([4]; first compound 2.53 µM): 0.955
